{"source": "patent US20170304228A1", "about": "“NEW INDICATION OF CINACALCET HCL PHARMACEUTICAL COMPOSITION FOR TREATING CANCER” (LAUNX BIOMEDICAL CO., LTD., priority 2014, published 2017)", "type_in_all_cases": "cell-based", "key": {"A549": {"tested_on": "A549", "experiment": "Cell viability analysis (WST-1), A549", "conditions": "Homo sapiens, read-out: survival rate (viability) of cells", "protocol": "(§1) The cell numbers were counted and reseed as 2×10^6 in culture plate/flask. Then, the culture medium were added to a volume of 10 ml, and the cells were cultured for 2-3 days. Then, the cells were suspended for loading into 96-well plates. The number of cells was 3000 and the volume of the culture medium was 100 μl each well.\n(§2) Removing the original culture medium from 96-well plate. Then add 100 μl of commercially drug at a concentration of 10 μM per well. After 72 hours, add the diluted WST-1 reagent to the well with 100 μl/well, and the diluted WST-1 reagent was acquired from the dilution of 9:1 medium and WST-1 stock reagent. Finally, the total volume of each well was 200 μl/well. Culture the 96-well plate at 37° C. for 30 to 90 minutes. Detecting and calculate the survival rate of each cancer cells with an ELISA reader at OD450 nm. The lower viability of cancer cells represents better inhibition effect via the Cinacalcet HCl drug. Otherwise, the higher viability of cancer cells represents worse inhibition effect via the Cinacalcet HCl drug.\n(§3) This inhibition test of Cinacalcet HCl on pleural-related cancer cells were using two lung cancer cell lines A549 and H1650. The inhibitory tests of Cinacalcet HCl were performed 4 times for each cell lines and then the average value of the inhibitory tests was calculated."}, "Hep3B": {"tested_on": "Hep3B", "experiment": "Cell viability analysis (WST-1), Hep3B", "conditions": "Homo sapiens, read-out: survival rate (viability) of cells", "protocol": "as §1, §2\n(§4) This inhibition test of Cinacalcet HCl on gastrointestinal tract-related cancer cells were using gastric cancer cell lines AGS and MKN-45 (Table 9), hepatic cancer cell lines HepG2 and Hep3B (Table 10), colorectal cancer cell lines HCT116-wt and LoVo (Table 11), pancreatic cancer cell line AsPC-1 and BxPC-3(Table 12), tongue cancer cell line SAS (Table 13). The inhibitory tests of Cinacalcet HCl were performed 4 times for each cell lines and then the average value of the inhibitory tests was calculated."}, "786-O": {"tested_on": "786-O", "experiment": "Cell viability analysis (WST-1), 786-O", "conditions": "Homo sapiens", "protocol": "as §1, §2\n(§5) This inhibition test of Cinacalcet HCl on abdominal-related cancer cells were using bladder cancer cell line TSGH and T24 (Table 3), cervical cancer cell lines HeLa and C-33A (Table 4), renal cancer cell line 786-O (Table 5). The inhibitory tests of Cinacalcet HCl were performed 4 times for each cell lines and then the average value of the inhibitory tests was calculated."}, "U2OS": {"tested_on": "U2OS", "experiment": "Cell viability analysis (WST-1), U2OS", "conditions": "Homo sapiens, read-out: survival rate (viability) of cells", "protocol": "as §1, §2\n(§6) This inhibition test of Cinacalcet HCl on other cancer cells were using osteosarcoma cell line U2OS (Table 14), skin cancer cell lines A375 and BCC (Table 15). The inhibitory tests of Cinacalcet HCl were performed 4 times for each cell lines and then the average value of the inhibitory tests was calculated."}, "H1650": {"tested_on": "H1650", "experiment": "Cell viability analysis (WST-1), H1650", "conditions": "Homo sapiens, read-out: survival rate (viability) of cells", "protocol": "as §1\nas §2, with “Culture the 96-well plate at 37° C. for 30 to 90 minutes.” left out\nas §3"}, "MDA-MB-231": {"tested_on": "MDA-MB-231", "experiment": "Cell viability analysis (WST-1), MDA-MB-231", "conditions": "Homo sapiens, read-out: survival rate (viability) of cells", "protocol": "as §1, §2\nThis inhibition test of Cinacalcet HCl on endocrine-related cancer cells were using prostate cancer cell lines PC-3 and LNCap (Table 6), breast cancer cell lines MCF7 and MDA-MB-231 (Table 7), and ovarian cancer cell lines NIH-OVCAR-3 and TOV-21G (Table 8). The inhibitory tests of Cinacalcet HCl were performed 4 times for each cell lines and then the average value of the inhibitory tests was calculated."}, "hepatic cancer cells": {"tested_on": "hepatic cancer cells", "experiment": "Summary of cell viability, hepatic cancer cells", "conditions": "72 hours, read-out: Inhibitory effect", "protocol": "as §1, §2\nCinacalcet HCl is having different inhibitory effect on different tumor cell type even in the same cancer. […] (FIG. 1)"}, "MKN-45": {"tested_on": "MKN-45", "experiment": "Cell viability analysis (WST-1), MKN-45", "conditions": "Homo sapiens, read-out: survival rate (viability) of cells", "protocol": "as §1, §2, §4"}, "BxPC-3": {"tested_on": "BxPC-3", "experiment": "Cell viability analysis (WST-1), BxPC-3", "conditions": "Homo sapiens, read-out: survival rate (viability) of cells", "protocol": "as §1, §2, §4"}, "T24": {"tested_on": "T24", "experiment": "Cell viability analysis (WST-1), T24", "conditions": "Homo sapiens, read-out: survival rate (viability) of cells", "protocol": "as §1, §2, §5"}, "BCC": {"tested_on": "BCC", "experiment": "Cell viability analysis (WST-1), BCC", "conditions": "read-out: survival rate (viability) of cells", "protocol": "as §1, §2, §6"}}, "note": "Structures can show the parent of a compound that is named as a salt. Where two headings read alike, the source gives them in different places.", "data": [{"smiles": "C[C@@H](NCCCc1cccc(C(F)(F)F)c1)c1cccc2ccccc12", "note": "[Cinacalcet HCl, Cinacalcet hydrochloride]", "values": [{"measurement": "viability at 10 µM", "setting": "A549; A549, 10 μM, 72 hours, test 0524-10 min", "result": 87.7, "unit": "%"}, {"measurement": "viability at 10 µM", "setting": "A549; A549, 10 μM, 72 hours, test 0526-10 min", "result": 103, "unit": "%"}, {"measurement": "viability at 10 µM", "setting": "A549; A549, 10 μM, 72 hours, test 0529-10 min", "result": 75.5, "unit": "%"}, {"measurement": "viability at 10 µM", "setting": "A549; A549, 10 μM, 72 hours, test 0531-10 min", "result": 92.6, "unit": "%"}, {"measurement": "viability at 10 µM", "setting": "A549; A549, 72 h, 10 μM, Average of tests", "result": 89.6, "unit": "%"}, {"measurement": "viability at 10 µM", "setting": "Hep3B; 72 h, average of tests", "result": 134, "unit": "%"}, {"measurement": "viability at 10 µM", "setting": "Hep3B; 72 hours, test 0612-20 min", "result": 143, "unit": "%"}, {"measurement": "viability at 10 µM", "setting": "Hep3B; 72 hours, test 0614-20 min", "result": 125, "unit": "%"}, {"measurement": "viability at 10 µM", "setting": "Hep3B; 72 hours, test 0616-20 min", "result": 152, "unit": "%"}, {"measurement": "viability at 10 µM", "setting": "Hep3B; 72 hours, test 0619-20 min", "result": 117, "unit": "%"}, {"measurement": "viability at 10 µM", "setting": "786-O; 786-0, 10 μM, 72 hours, test 0524-10 min, read-out: survival rate (viability) of cells", "result": 81.3, "unit": "%"}, {"measurement": "viability at 10 µM", "setting": "786-O; 786-0, 10 μM, 72 hours, test 0526-10 min, read-out: survival rate (viability) of cells", "result": 71.6, "unit": "%"}, {"measurement": "viability at 10 µM", "setting": "786-O; 786-0, 10 μM, 72 hours, test 0529-10 min, read-out: survival rate (viability) of cells", "result": 80.2, "unit": "%"}, {"measurement": "viability at 10 µM", "setting": "786-O; 786-0, 10 μM, 72 hours, test 0531-10 min, read-out: survival rate (viability) of cells", "result": 87.1, "unit": "%"}, {"measurement": "viability at 10 µM", "setting": "786-O; 786-0, 72 h, 10 μM, average of tests, read-out: survival rate (viability) of cells", "result": 80, "unit": "%"}, {"measurement": "viability at 10 µM", "setting": "786-O; 786-0, 72 h, summary, Kidney cancer, 10 μM, read-out: Inhibitory effect", "result": 87.5, "unit": "%"}, {"measurement": "viability at 10 µM", "setting": "U2OS; 72 h, average of tests", "result": 77.4, "unit": "%"}, {"measurement": "viability at 10 µM", "setting": "U2OS; 72 hours, test 6-26-10 min", "result": 82.6, "unit": "%"}, {"measurement": "viability at 10 µM", "setting": "U2OS; 72 hours, test 6-28-10 min", "result": 86.7, "unit": "%"}, {"measurement": "viability at 10 µM", "setting": "U2OS; 72 hours, test 6-30-10 min", "result": 64.9, "unit": "%"}, {"measurement": "viability at 10 µM", "setting": "U2OS; 72 hours, test 7-3-10 min", "result": 75.3, "unit": "%"}, {"measurement": "viability at 10 µM", "setting": "H1650; NCI-H1650, 10 μM, 72 hours, test 1-10 min", "result": 86.8, "unit": "%"}, {"measurement": "viability at 10 µM", "setting": "H1650; NCI-H1650, 10 μM, 72 hours, test 2-20 min", "result": 67.5, "unit": "%"}, {"measurement": "viability at 10 µM", "setting": "H1650; NCI-H1650, 10 μM, 72 hours, test 3-20 min", "result": 76.8, "unit": "%"}, {"measurement": "viability at 10 µM", "setting": "H1650; NCI-H1650, 10 μM, 72 hours, test 4-20 min", "result": 75.2, "unit": "%"}, {"measurement": "viability at 10 µM", "setting": "H1650; NCI-H1650, 72 h, 10 μM, Average of tests", "result": 76.5, "unit": "%"}, {"measurement": "viability at 10 µM", "setting": "MDA-MB-231; MDA-MB-231, 10 μM, 72 hours, test 0612-10 min", "result": 92.3, "unit": "%"}, {"measurement": "viability at 10 µM", "setting": "MDA-MB-231; MDA-MB-231, 10 μM, 72 hours, test 0614-10 min", "result": 84.9, "unit": "%"}, {"measurement": "viability at 10 µM", "setting": "MDA-MB-231; MDA-MB-231, 10 μM, 72 hours, test 0616-10 min", "result": 60.8, "unit": "%"}, {"measurement": "viability at 10 µM", "setting": "MDA-MB-231; MDA-MB-231, 10 μM, 72 hours, test 0619-10 min", "result": 92.8, "unit": "%"}, {"measurement": "viability at 10 µM", "setting": "MDA-MB-231; MDA-MB-231, 72 h, 10 μM, average of tests", "result": 82.7, "unit": "%"}, {"measurement": "viability at 10 µM", "setting": "hepatic cancer cells", "result": 102, "unit": "%"}, {"measurement": "viability at 10 µM", "setting": "MKN-45; MKN-45, 10 μM, 72 hours, test 0510-10 min", "result": 82.1, "unit": "%"}, {"measurement": "viability at 10 µM", "setting": "MKN-45; MKN-45, 10 μM, 72 hours, test 0512-10 min", "result": 102, "unit": "%"}, {"measurement": "viability at 10 µM", "setting": "MKN-45; MKN-45, 10 μM, 72 hours, test 0515-10 min", "result": 104, "unit": "%"}, {"measurement": "viability at 10 µM", "setting": "MKN-45; MKN-45, 10 μM, 72 hours, test 0517-10 min", "result": 69.1, "unit": "%"}, {"measurement": "viability at 10 µM", "setting": "MKN-45; MKN-45, 72 h, 10 μM, average of tests", "result": 89.1, "unit": "%"}, {"measurement": "viability at 10 µM", "setting": "BxPC-3; BXPC-3, 10 μM, 72 hours, test 3-4-30 min", "result": 76.2, "unit": "%"}, {"measurement": "viability at 10 µM", "setting": "BxPC-3; BXPC-3, 10 μM, 72 hours, test 3-7-3-30 min", "result": 64.6, "unit": "%"}, {"measurement": "viability at 10 µM", "setting": "BxPC-3; BXPC-3, 10 μM, 72 hours, test 3-7-4-30 min", "result": 78.8, "unit": "%"}, {"measurement": "viability at 10 µM", "setting": "BxPC-3; BXPC-3, 10 μM, 72 hours, test 3-7-7-30 min", "result": 100, "unit": "%"}, {"measurement": "viability at 10 µM", "setting": "BxPC-3; BXPC-3, 72 h, 10 μM, Average of tests", "result": 79.9, "unit": "%"}, {"measurement": "viability at 10 µM", "setting": "T24; T-24, 10 μM, 72 hours, test T24-1-30 min", "result": 71.1, "unit": "%"}, {"measurement": "viability at 10 µM", "setting": "T24; T-24, 10 μM, 72 hours, test T24-2-20 min", "result": 133, "unit": "%"}, {"measurement": "viability at 10 µM", "setting": "T24; T-24, 10 μM, 72 hours, test T24-3-20 min", "result": 177, "unit": "%"}, {"measurement": "viability at 10 µM", "setting": "T24; T-24, 10 μM, 72 hours, test T24-4-20 min", "result": 103, "unit": "%"}, {"measurement": "viability at 10 µM", "setting": "T24; T-24, 72 h, 10 μM, average of tests", "result": 121, "unit": "%"}, {"measurement": "viability at 10 µM", "setting": "BCC; 72 h, average of tests", "result": 111, "unit": "%"}, {"measurement": "viability at 10 µM", "setting": "BCC; 72 hours, test 0602-30 min", "result": 114, "unit": "%"}, {"measurement": "viability at 10 µM", "setting": "BCC; 72 hours, test 0605-10 min", "result": 106, "unit": "%"}, {"measurement": "viability at 10 µM", "setting": "BCC; 72 hours, test 0607-10 min", "result": 113, "unit": "%"}]}]}
